Test results as given in EP1247803A2, “Indolinone compounds suitable for modulation of protein kinases” (Sugen, Inc., priority 1996, dated 1998).

Target: T1, FLK-1 receptor (Mus musculus, UniProt P35918)
T1 construct: expressed in transfected cells; host or cells: NIH3T3 C7#3
Experiment: FLK-1 ELISA (kinase activity of the FLK-1 receptor in FLK-1/NIH3T3 cells, VEGF stimulated)
Format: cell-based
Outline: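 FLK-1-expressing NIH3T3 C7#3 cells, starved overnight in 0.1% FBS medium, were treated with compounds at a 1:200 final dilution (0.5% DMSO) for 2 h at 37 °C, with VEGF stimulation. FLK-1 kinase activity was read by ELISA on anti-rabbit IgG plates using affinity-purified anti-FLK-1 antiserum.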

T1 sequence (P35918 20-1345): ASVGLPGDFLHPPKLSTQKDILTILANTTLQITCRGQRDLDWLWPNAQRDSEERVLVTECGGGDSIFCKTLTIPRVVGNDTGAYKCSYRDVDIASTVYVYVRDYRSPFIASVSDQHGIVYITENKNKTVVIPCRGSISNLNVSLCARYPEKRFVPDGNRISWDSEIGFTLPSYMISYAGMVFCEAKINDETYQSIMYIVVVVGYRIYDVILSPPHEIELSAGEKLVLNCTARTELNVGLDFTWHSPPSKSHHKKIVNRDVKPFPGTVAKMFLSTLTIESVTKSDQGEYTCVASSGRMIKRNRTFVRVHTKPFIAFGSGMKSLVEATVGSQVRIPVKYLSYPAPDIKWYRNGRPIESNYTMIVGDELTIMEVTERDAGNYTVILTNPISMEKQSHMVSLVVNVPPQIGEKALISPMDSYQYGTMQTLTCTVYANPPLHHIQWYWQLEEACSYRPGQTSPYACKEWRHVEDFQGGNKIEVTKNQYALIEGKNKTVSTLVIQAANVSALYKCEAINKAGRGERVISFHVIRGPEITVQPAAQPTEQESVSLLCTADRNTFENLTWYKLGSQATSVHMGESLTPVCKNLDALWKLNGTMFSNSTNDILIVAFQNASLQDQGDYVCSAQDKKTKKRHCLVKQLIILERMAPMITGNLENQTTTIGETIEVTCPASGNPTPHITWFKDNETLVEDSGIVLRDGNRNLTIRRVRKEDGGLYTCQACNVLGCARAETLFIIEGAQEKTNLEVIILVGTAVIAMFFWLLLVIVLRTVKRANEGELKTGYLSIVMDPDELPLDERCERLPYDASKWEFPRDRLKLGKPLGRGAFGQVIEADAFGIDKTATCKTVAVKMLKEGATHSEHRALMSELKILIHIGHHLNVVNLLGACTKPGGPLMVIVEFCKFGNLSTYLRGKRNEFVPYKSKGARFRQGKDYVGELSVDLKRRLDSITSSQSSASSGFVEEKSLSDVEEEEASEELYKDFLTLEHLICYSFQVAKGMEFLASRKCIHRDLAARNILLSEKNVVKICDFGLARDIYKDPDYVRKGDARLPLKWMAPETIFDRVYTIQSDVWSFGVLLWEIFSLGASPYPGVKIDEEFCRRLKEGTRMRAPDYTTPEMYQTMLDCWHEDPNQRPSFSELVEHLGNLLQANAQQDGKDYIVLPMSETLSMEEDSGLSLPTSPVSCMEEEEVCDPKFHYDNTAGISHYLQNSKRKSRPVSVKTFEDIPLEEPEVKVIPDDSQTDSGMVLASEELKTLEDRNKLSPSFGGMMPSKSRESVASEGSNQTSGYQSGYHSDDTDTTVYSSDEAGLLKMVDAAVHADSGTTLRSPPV

Structure (SMILES)	Fik Kinase %Inhibition
O=C1Nc2ccc(S(=O)(=O)Nc3ccc(C(F)(F)F)cc3)cc2C1=Cc1cccc(F)c1O [10734/E08]	26.6%
CCOc1cccc(C=C2C(=O)Nc3ccc(CCCl)cc32)c1O [10734/G02]	1.5%
O=C1Nc2ccc(CCCl)cc2C1=Cc1cccc(F)c1O [10734/G08]	11.6%
O=C1Nc2ccc(I)cc2C1=Cc1ccc(O)c(O)c1 [10719/B03]	14.2%
O=C1Nc2ccc(S(=O)(=O)N3CCOCC3)cc2C1=Cc1ccco1 [10718/F10]	17.9%
O=C1Nc2c(Br)cc(Br)cc2C1=Cc1ccc(O)c(O)c1 [10719/A03]	3.9%
O=C1Nc2ccc(I)cc2C1=Cc1ccc(F)cc1 [10717/B05]	1.0%
CC(C)(C)c1ccc(C=C2C(=O)Nc3ccc(CCCl)cc32)cc1 [10734/G10]	10.8%
COc1cc(OC)c(C=C2C(=O)Nc3ccc(Br)c(C)c32)c(OC)c1 [10719/C06]	47.7%
O=C1Nc2ccc(CCCl)cc2C1=Cc1ccc2ccccc2c1O [10718/G04]	1.8%
CCOc1ccc(C=C2C(=O)Nc3ccc(I)cc32)cc1OC [10719/B02]	11.5%
COc1ccc(C=C2C(=O)Nc3c(Br)cc(Br)cc32)c(OC)c1 [10719/A04]	19.2%
Cc1c(Br)ccc2c1C(=Cc1ccc(O)c(O)c1)C(=O)N2 [10719/C03]	15.3%
O=C1Nc2ccc(CCCl)cc2C1=Cc1cc(Cl)ccc1O [10734/G04]	-1.1%
O=C1Nc2ccc(CCCl)cc2C1=Cc1ccc([N+](=O)[O-])cc1 [10734/G06]	16.5%
O=C1Nc2ccc(S(=O)(=O)Nc3ccc(C(F)(F)F)cc3)cc2C1=Cc1ccc(O)c(Br)c1 [10734/E09]	8.0%
O=C1Nc2ccc(S(=O)(=O)N3CCOCC3)cc2C1=Cc1ccc(Cl)c([N+](=O)[O-])c1 [10718/F08]	15.3%
COC(=O)c1[nH]c(C)c(C=C2C(=O)Nc3ccc(CCCl)cc32)c1C(=O)OC [10718/G07]	11.4%
O=C1Nc2ccc(CCCl)cc2C1=Cc1cc(Cl)cc(Cl)c1O [10734/G03]	18.7%
Cc1c(O)ccc(C=C2C(=O)Nc3ccc(S(=O)(=O)N4CCOCC4)cc32)c1O [10718/F09]	-3.0%
CCOC(=O)CCc1c(C(=O)OCC)[nH]c(C=C2C(=O)Nc3ccc(S(=O)(=O)N4CCOCC4)cc32)c1CC(=O)OCC [10718/F05]	19.5%
O=C1Nc2ccc(CCCl)cc2C1=Cc1ccc(O)c(Br)c1 [10734/G09]	8.5%
O=C1Nc2ccc(CCCl)cc2C1=Cc1ccc(Br)s1 [10734/G11]	8.7%
O=C1Nc2c(Br)cc(Br)cc2C1=Cc1ccc(F)cc1Cl [10719/A09]	12.3%
CN(C)c1ccc(C=C2C(=O)Nc3c(Br)cc(Br)cc32)cc1 [10719/A08]	11.9%
O=C1Nc2ccc(CCCl)cc2C1=Cc1ccc(Cl)c([N+](=O)[O-])c1 [10718/G08]	6.1%
CCOc1ccccc1C=C1C(=O)Nc2ccc(I)cc21 [10717/B02]	5.0%

Structure (SMILES)	Fik Kinase %Inhibition
CN(C)c1ccc(C=C2C(=O)Nc3ccc(I)cc32)cc1 [10719/B08]	4.0%
O=C1Nc2ccc(S(=O)(=O)N3CCOCC3)cc2C1=Cc1cc(Cl)ccc1O [10734/F04]	-2.6%
O=C1Nc2ccc(I)cc2C1=Cc1ccc(F)cc1C(F)(F)F [10719/B11]	11.2%
CCc1c(C)[nH]c(C=C2C(=O)Nc3ccc(I)cc32)c1C [10719/B05]	17.7%
CCOC(=O)c1c(C)[nH]c(C=C2C(=O)Nc3ccc(CCCl)cc32)c1C [10718/G02]	-2.5%
COC(=O)c1[nH]c(C)c(C=C2C(=O)Nc3ccc(S(=O)(=O)N4CCOCC4)cc32)c1C(=O)OC [10718/F07]	16.5%
O=C1Nc2ccc(CCCl)cc2C1=Cc1ccc([N+](=O)[O-])o1 [10718/G11]	15.6%
O=C1Nc2ccc(S(=O)(=O)N3CCOCC3)cc2C1=Cc1cccc(F)c1O [10734/F08]	4.8%
Cc1c(Br)ccc2c1C(=Cc1ccc(O)cc1)C(=O)N2 [10719/C07]	31.2%
CCc1c(C)[nH]c(C=C2C(=O)Nc3c(Br)cc(Br)cc32)c1C [10719/A05]	10.0%
O=C1Nc2ccc(S(=O)(=O)N3CCOCC3)cc2C1=Cc1ccc([N+](=O)[O-])o1 [10718/F11]	10.1%
O=C1Nc2ccc(I)cc2C1=Cc1ccc(O)cc1 [10719/B07]	12.5%
O=C1Nc2ccc(S(=O)(=O)N3CCOCC3)cc2C1=Cc1ccc(O)c(Br)c1 [10734/F09]	-3.7%
CCOC(=O)c1cc(C=C2C(=O)Nc3ccc(CCCl)cc32)oc1C [10718/G06]	9.8%
CC(C)(C)c1ccc(C=C2C(=O)Nc3ccc(S(=O)(=O)Nc4ccc(C(F)(F)F)cc4)cc32)cc1 [10734/E10]	18.5%
O=C1Nc2c(Br)cc(Br)cc2C1=Cc1ccc(F)cc1C(F)(F)F [10719/A11]	7.4%
COc1cc(Br)c(O)c(C=C2C(=O)Nc3ccc(S(=O)(=O)N4CCOCC4)cc32)c1 [10718/F03]	-0.2%
CCOc1ccc(C=C2C(=O)Nc3ccc(Br)c(C)c32)cc1OC [10719/C02]	4.1%
Cc1c(Br)ccc2c1C(=Cc1ccc(N(C)C)cc1)C(=O)N2 [10719/C08]	15.0%
CC(C)(C)c1ccc(C=C2C(=O)Nc3ccc(S(=O)(=O)N4CCOCC4)cc32)cc1 [10734/F10]	14.8%
O=C1Nc2c(Br)cc(Br)cc2C1=Cc1cccc([N+](=O)[O-])c1 [10719/A10]	10.9%
Cn1cccc1C=C1C(=O)Nc2ccc(I)cc21 [10717/B04]	-18.3%
CCOc1cccc(C=C2C(=O)Nc3ccc(S(=O)(=O)N4CCOCC4)cc32)c1O [10734/F02]	6.2%
COc1cc(OC)c(C=C2C(=O)Nc3c(Br)cc(Br)cc32)c(OC)c1 [10719/A06]	14.0%
Cc1c(Br)ccc2c1C(=Cc1ccc(F)cc1Cl)C(=O)N2 [10719/C09]	23.5%
CCN(CC)c1ccc(C=C2C(=O)Nc3ccc(S(=O)(=O)Nc4ccc(C(F)(F)F)cc4)cc32)c(O)c1 [10734/E05]	10.6%
COc1ccc(C=C2C(=O)Nc3ccc(Br)c(C)c32)c(OC)c1 [10719/C04]	59.9%

Structure (SMILES)	Fik Kinase %Inhibition
O=C1Nc2ccc(S(=O)(=O)Nc3ccc(C(F)(F)F)cc3)cc2C1=Cc1ccc(Br)s1 [10734/E11]	19.2%
O=C1Nc2ccc(S(=O)(=O)Nc3ccc(C(F)(F)F)cc3)cc2C1=Cc1cc(Br)cc(Br)c1O [10734/E07]	27.9%
CCN(CC)c1ccc(C=C2C(=O)Nc3ccc(S(=O)(=O)N4CCOCC4)cc32)c(O)c1 [10734/F05]	9.8%
O=C1Nc2c(Br)cc(Br)cc2C1=Cc1ccc(O)cc1 [10719/A07]	21.3%
CCN(CC)c1ccc(C=C2C(=O)Nc3ccc(CCCl)cc32)c(O)c1 [10734/G05]	7.4%
COc1cc(Br)c(O)c(C=C2C(=O)Nc3ccc(CCCl)cc32)c1 [10718/G03]	-4.7%
COc1ccc(C=C2C(=O)Nc3ccc(I)cc32)c(OC)c1 [10719/B04]	24.9%
O=C1Nc2ccc(S(=O)(=O)N3CCOCC3)cc2C1=Cc1cc(Br)cc(Br)c1O [10734/F07]	6.6%
Cc1c(O)ccc(C=C2C(=O)Nc3ccc(CCCl)cc32)c1O [10718/G09]	-12.8%
O=C1Nc2ccc(I)cc2C1=Cc1cccc([N+](=O)[O-])c1 [10719/B10]	1.1%
O=C1Nc2ccc(S(=O)(=O)N3CCOCC3)cc2C1=Cc1cc(Cl)cc(Cl)c1O [10734/F03]	4.2%
O=C1Nc2ccc(I)cc2C1=Cc1c[nH]c2ccccc12 [10717/B06]	5.4%
CCc1c(C)[nH]c(C=C2C(=O)Nc3ccc(Br)c(C)c32)c1C [10719/C05]	25.6%
O=C1Nc2ccc(CCCl)cc2C1=Cc1cc(Br)cc(Br)c1O [10734/G07]	21.9%
COc1cc(OC)c(C=C2C(=O)Nc3ccc(I)cc32)c(OC)c1 [10719/B06]	21.3%
CCOc1ccc(C=C2C(=O)Nc3c(Br)cc(Br)cc32)cc1OC [10719/A02]	21.4%
O=C1Nc2ccc(I)cc2C1=Cc1cccs1 [10717/B03]	-8.8%
CCOC(=O)CCc1c(C(=O)OCC)[nH]c(C=C2C(=O)Nc3ccc(CCCl)cc32)c1CC(=O)OCC [10718/G05]	3.7%
O=C1Nc2ccc(CCCl)cc2C1=Cc1ccco1 [10718/G10]	7.1%
O=C1Nc2ccc(I)cc2C1=Cc1ccc(F)cc1Cl [10719/B09]	11.3%
O=C1Nc2ccc(S(=O)(=O)Nc3ccc(C(F)(F)F)cc3)cc2C1=Cc1ccc([N+](=O)[O-])cc1 [10734/E06]	28.4%
O=C1Nc2ccc(S(=O)(=O)N3CCOCC3)cc2C1=Cc1ccc([N+](=O)[O-])cc1 [10734/F06]	11.0%
CCOC(=O)c1c(C)[nH]c(C=C2C(=O)Nc3ccc(S(=O)(=O)N4CCOCC4)cc32)c1C [10718/F02]	20.1%
CCOC(=O)c1cc(C=C2C(=O)Nc3ccc(S(=O)(=O)N4CCOCC4)cc32)oc1C [10718/F06]	18.3%
O=C1Nc2ccc(S(=O)(=O)Nc3ccc(C(F)(F)F)cc3)cc2C1=Cc1cc(Cl)ccc1O [10734/E04]	10.7%
O=C1Nc2ccc(S(=O)(=O)N3CCOCC3)cc2C1=Cc1ccc2ccccc2c1O [10718/F04]	9.4%
